Converted amounts (≈) assume the structure as drawn. Structures can show the parent of a compound that is named as a salt.
How the values were obtained:
[1] = system: IL-12 production by LPS-activated monocytes; experiment: Stimulation of human monocytes with lipopolysaccharide for secretion of IL-12 (IL-12 sandwich ELISA of culture supernatants); type: cell-based; conditions: CD14-positive human monocytes, 1 h preincubation with test substance, 20 μg/ml LPS from E. coli, 24 hours; for IC50: Monocyte, read-out: Inhibition of IL-12 production IC50
Procedure: Human monocytes were isolated from peripheral blood mononuclear cells (PBMC) obtained by means of a Ficoll density-gradient centrifugation of heparinized whole blood. To this end, the PBMC were incubated with a monoclonal antibody directed against the monocyte-specific surface molecule CD14 and to which superparamagnetic microbeads (Miltenyi Biotech, Bergisch Gladbach) are coupled. In order for the marked monocytes to be positively selected from the mixture of cells in the PBMC, the total cell suspension was transferred to a column with a ferromagnetic carrier matrix and the column placed in a magnetic field. This caused the cells loaded with microbeads to be bonded to the carrier matrix, whilst unmarked cells passed through the column and were discarded. After removing the matrix from the magnetic field, the antibody-loaded cells were eluted by rinsing the now demagnetised column with buffer. The purity of this CD 14-positive monocyte population thus obtained was around 95 to 98%. These monocytes were incubated in a density of 10^6 cells/ml culture medium (RPMI, supplemented with 10% fetal calf serum) with the test substances dissolved in DMSO for one hour at 37° C. and 5% CO2.20 μg/ml LPS from E. coli were then added. After 24 hours, cell-free culture supernatants were taken and tested for their IL-12 content.
The concentration of IL-12 in the cell culture supernatants was determined by means of sandwich ELISA using two anti-IL-12 monoclonal antibodies (Biosource Europe, Fleurus, Belgium). A reference standard curve with human IL-12 was included. The detection limit of the IL-12 ELISA was 10 pg/ml.

Compound	Inhibition of IL-12 production IC50 [1] [µg/mL]	IC50 [1] [µg/mL]	melting point	Inhibition of IL-12 production Maximum (%) [1] [%]
CC(=O)Nc1ccccc1CNC1CCC(=O)NC1=O (centres unmarked) [Example 16]	3.0	–	–	95
O=C1CC[C@@H](NCc2ccccc2C(=O)Nc2ccccc2)C(=O)N1 [Example 8.10, 2-[(3R)-(2,6-dioxopiperidin-3-ylamino)methyl]-N-phenyl benzamide]	–	–	–	50
O=C1CC[C@H](NCc2ccccc2C(=O)N2CCOCC2)C(=O)N1 [Example 8.1]	1.8	–	–	90
CCN(CC)C(=O)c1ccccc1CN[C@H]1CCC(=O)NC1=O [Example 7, 2-[(3S)-(2,6-dioxopiperidin-3-ylamino)methyl]-N,N-diethylbenzamide]	–	1.5 (≈ 4.73 µM)	–	90
O=CNc1ccccc1CNC1CCC(=O)NC1=O (centres unmarked) [Example 17, N-{2-[(2,6-dioxopiperidin-3-ylamino)methyl]phenyl}Formamide]	–	0.02 (≈ 0.0765 µM)	–	98
COC(=O)c1cc(SCC2CCC(=O)NC2=O)ccc1[N+](=O)[O-] (centres unmarked) [Example 18, 3-(2,6-dioxopiperidin-3-ylmethylsulfanyl)-6-nitro Methylbenzoate]	3.0	–	–	57
O=C1CCC(NCc2cccc3ccccc23)C(=O)N1 (racemic) (as salt: hydrochloride) [Example 2.6, 3-[(naphth-1-ylmethyl)amino]piperidine-2,6-dione]	–	–	188 °C (dec.)	–
COC(=O)c1cc(SCC2CCC(=O)NC2=O)ccc1N (centres unmarked) [Example 19, 2-amino-5-(2,6-dioxopiperidin-3-ylmethylsulfanyl) methyl benzoate]	5.0	–	–	66
CCOc1ccccc1CNC1CCC(=O)NC1=O (racemic) (as salt: hydrochloride) [Example 2.39, 3-(2-ethoxybenzylamino) piperidine-2,6-dione]	–	–	208 to 212 °C	–
O=C1CCC(NCc2ccc(F)cc2Cl)C(=O)N1 (racemic) (as salt: hydrochloride) [Example 2.13, 3-(2-chloro-4-fluorobenzylamino) piperidine-2,6-dione]	–	–	241 to 242 °C	–
O=C1CCC(NCc2ccc(Cl)cc2)C(=O)N1 (racemic) (as salt: hydrochloride) [Example 2.37, 3-(4-chlorobenzylamino) piperidine-2,6-dione]	–	–	262 to 265 °C	–
O=C1CCC(NCc2ccccc2Br)C(=O)N1 (racemic) (as salt: hydrochloride) [Example 2.30, 3-(2-bromobenzylamino) piperidine-2,6-dione]	–	–	244 to 246 °C	–
Cc1cccc(Cl)c1CNC1CCC(=O)NC1=O (racemic) (as salt: hydrochloride) [Example 2.15, 3-(2-chloro-6-methylbenzylamino) piperidine-2,6-dione]	–	–	238 to 240 °C	–
O=C1CCC(NCc2cc(F)cc(C(F)(F)F)c2)C(=O)N1 (racemic) (as salt: hydrochloride) [Example 2.18, 3-[3-fluoro-5-(trifluoromethyl)benzylamino]piperidine-2,6-dione]	–	–	241 to 243 °C	–
O=C1CCC(NCc2cccc(F)c2)C(=O)N1 (racemic) (as salt: hydrochloride) [Example 2.19, 3-(3-fluorobenzylamino) piperidine-2,6-dione]	–	–	231 to 235 °C	–
COc1cccc(CNC2CCC(=O)NC2=O)c1 (racemic) (as salt: hydrochloride) [Example 2.41, 3-(3-methoxybenzylamino) piperidine-2,6-dione]	–	–	217 to 219 °C	–
O=C1CCC(NCc2ccc(Cl)c(Cl)c2)C(=O)N1 (racemic) (as salt: hydrochloride) [Example 2.33, 3-(3,4-dichlorobenzylamino) piperidine-2,6-dione]	–	–	252 to 254 °C	–

Second part, led by results:

Inhibition of IL-12 production IC50 [1] [µg/mL]	IC50 [1] [µg/mL]	melting point	Compound	Inhibition of IL-12 production Maximum (%) [1] [%]
–	0.15 (≈ 0.574 µM)	–	NC(=O)c1ccccc1CN[C@H]1CCC(=O)NC1=O [Example 8.3, 2-[(3S)-(2,6-dioxopiperidin-3-ylamino)methyl]benzamide]	90
0.1	–	–	COC(=O)c1ccccc1CN[C@H]1CCC(=O)NC1=O [Example 9.1, 2-[(3S)-(2,6-dioxopiperidin-3-ylamino)methyl]methyl benzoate]	90
–	1 (≈ 3.83 µM)	–	NC(=O)c1ccccc1CN[C@@H]1CCC(=O)NC1=O [Example 8.12, 2-[(3R)-(2,6-dioxopiperidin-3-ylamino)methyl]benzamide]	84
0.9	–	–	CCNC(=O)c1ccccc1CN[C@H]1CCC(=O)NC1=O [Example 8.4, 2-[(3S)-(2,6-dioxopiperidin-3-ylamino)methyl]-N-ethyl benzamide]	80
–	1 (≈ 3.81 µM)	–	O=C1CC[C@@H](NCc2ccccc2C(=O)O)C(=O)N1 [Example 6.2, 2-[(3R)-(2,6-dioxopiperidin-3-ylamino)methyl]benzoic acid]	75
0.2	–	–	CCN(CC)C(=O)c1ccccc1CN[C@@H]1CCC(=O)NC1=O [Example 8.11, 2-[(3R)-(2,6-dioxopiperidin-3-ylamino)methyl]-N,N-diethyl benzamide]	90
–	–	145 to 148 °C	O=C1CCC(CNc2cccc3ccccc23)C(=O)N1 (centres unmarked) [Example 11.3, 3-(naphth-1-ylaminomethyl) piperidine-2,6-dione]	–
1.8	–	–	{2-[(3S)-(2,6-dioxopiperidin-3-ylamino)methyl]benzoylamino}methyl acetate [Example 8.2]	70
2.0	–	–	O=C1CC[C@H](NCc2ccccc2C(=O)N2CCCC2)C(=O)N1 [Example 8.5]	80
–	–	132 to 134 °C	CN(CC1CCC(=O)NC1=O)c1ccccc1 (centres unmarked) [Example 11.10, 3-[(N-methyl-N-phenylamino)methyl]piperidine-2,6-dione]	–
–	–	131 to 134 °C	COc1ccc(NCC2CCC(=O)NC2=O)cc1 (centres unmarked) [Example 11.13, 3-[(4-methoxyphenylamino)methyl]piperidine-2,6-dione]	–
–	0.7 (≈ 2.07 µM)	–	O=C1CC[C@H](NCc2ccccc2C(=O)Nc2ccccc2)C(=O)N1 [Example 8.7, 2-[(3S)-(2,6-dioxopiperidin-3-ylamino)methyl]-N-phenylbenzamide]	55
6.0	–	–	COC(=O)c1ccccc1SCC1CCC(=O)NC1=O (centres unmarked) [Example 13.3, 2-(2,6-dioxopiperidin-3-ylmethyl)sulfanyl) methyl benzoate]	50
–	–	155 to 156 °C (dec.)	NC(=O)c1ccccc1CN[C@H]1CCC(=O)NC1=O (as salt: hydrobromid) [Example 8.3, 2-[(3S)-(2,6-dioxopiperidin-3-ylamino)methyl]benzamide]	–
–	0.04 (≈ 0.145 µM)	–	NNC(=O)c1ccccc1CN[C@H]1CCC(=O)NC1=O [Example 8.6, 2-[(3S)-(2,6-dioxopiperidin-3-ylamino)methyl]benzoic acid hydrazide]	90
1.5	–	–	2-[(3S)-(2,6-dioxopiperidin-3-ylamino)methyl]benzyl benzoate [Example 9.2]	82
–	–	129 to 132 °C	CC(=O)c1cccc(NCC2CCC(=O)NC2=O)c1 (centres unmarked) [Example 11.9, 3-[(3-acetylphenylamino)methyl]piperidine-2,6-dione]	–
–	–	149 to 150 °C	O=C1CCC(CNc2ccc(Br)cc2)C(=O)N1 (centres unmarked) [Example 11.1, 3-[(4-bromophenylamino)methyl]piperidine-2,6-dione]	–
–	1 (≈ 3.81 µM)	–	O=C1CC[C@H](NCc2ccccc2C(=O)O)C(=O)N1 [Example 6.1, 2-[(3S)-(2,6-dioxopiperidin-3-ylamino)methyl]benzoic acid]	85
–	–	157 to 162 °C	CN(Cc1cccc2ccccc12)C1CCC(=O)NC1=O (racemic) [Example 4.5, 3-(methylnaphth-1-ylmethylamino) piperidine-2,6-dione]	–

Source: US6656937B2, “Substituted glutarimides and their use as inhibitors of IL-12 production” (Gruenenthal, GmbH, priority 2000, dated 2003)
